The results in this text go back to patent publication US9732065B2, “Cyclic aminomethyl pyrimidine derivative” (Sumitomo Dainippon Pharma Co., Ltd., priority 2013, dated 2017).

The target in experiment [1] is T1, Human dopamine D4 receptor (Homo sapiens, UniProt P21917).
T1 sequence (P21917 1-419): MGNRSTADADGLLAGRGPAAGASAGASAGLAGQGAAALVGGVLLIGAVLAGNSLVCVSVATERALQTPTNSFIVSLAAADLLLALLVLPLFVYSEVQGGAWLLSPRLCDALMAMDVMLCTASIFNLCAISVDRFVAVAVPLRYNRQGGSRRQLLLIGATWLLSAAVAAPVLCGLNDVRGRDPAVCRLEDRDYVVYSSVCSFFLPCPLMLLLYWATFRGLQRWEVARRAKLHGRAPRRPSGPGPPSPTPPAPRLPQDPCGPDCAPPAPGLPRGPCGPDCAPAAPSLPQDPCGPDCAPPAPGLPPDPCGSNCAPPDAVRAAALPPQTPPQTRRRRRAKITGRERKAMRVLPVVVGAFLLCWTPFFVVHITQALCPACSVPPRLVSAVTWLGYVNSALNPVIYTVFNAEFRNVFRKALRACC
The experiment can be described thus: G protein independent pathway: β-arrestin recruit ability (PathHunter β-galactosidase). In kind it is cell-based. Also noted: expressed in transfected cells. Particulars: β-arrestin recruitment, 90 minutes; 10 μM dopamine = 100%. Here is the method: The activation of the G protein independent pathway was evaluated on the basis of the recruit ability of β-arrestin as follows. Cell lines transfected with D4 receptor genes were seeded in a 384-well plate, and incubated in a CO2 incubator at 37° C. for 24 hours, a solution of the present compound in DMSO was added into the cells, and then the cells were left at 37° C. for 90 minutes. Buffer containing β-galactosidase reaction substance (PathHunter Cell Assay Buffer, DiscoverRx) was added thereto, and luminescent signals in the wells were measured with a FDSS (Hamamatsu Photonics K.K.). […] The maximal activity (Emax) of the present compound was calculated according to the measured luminescent signals. EC50 value was calculated as the concentration of the present compound required to achieve a 50 response.

For experiment [2], the system named is rat after prenatal exposure to valproic acid. Briefly: Social impairments in rat after prenatal exposure to valproic acid, three-chamber test. In kind it is in vivo. The settings on record: oral, 1 mg/kg. From the text: A rat exposed to valproic acid on the 12.5 days of fetal life has been widely used as an autistic rat model with high validity. It is known that the rat has a social cognitive disorder through the three-chamber test which is a test for evaluating sociability. Thus, the rat was pretreated with the present compound to evaluate the improved effect of the present compound on social cognition. In this study, a sociability cage (600 mm×400 mm×220 mm, Muromachi Kikai Co., Ltd.) was used. Specifically, a 3-week-old rat after prenatal exposure to valproic acid received the oral administration of the present compound, and the time that the rat stayed in close to another rat side or a novel object was measured for 10 minutes from 30 minutes after the administration. The ratio of the time for another rat side to the time for a novel object that is defined as 100% was calculated to evaluate the improvement ratio (%) of the present compound on the basis of the result of the vehicle-treated group. The improvement ratio after the oral administration of the compound of Example 5 (1 mg/kg) was 27.6%.

For another experiment, the system named is SHR rat. The experiment can be described thus: Inattention in SHR rat, Y-shaped maze test. The settings on record: oral, 1 mg/kg. It counts as in vivo. Here is the method:
It is known that a SHR rat has a lower spontaneous alternation behavior ratio than a WKY rat which is a background animal through the Y-shaped maze test. Thus, the SHR rat was pretreated with the present compound to evaluate the pharmacological effect of the present compound on attention function. Specifically, a 4-week-old SHR rat received the oral administration of the present compound, and a spontaneous alternation behavior ratio in the rat was measured for 8 minutes from 30 minutes after the administration. The improved spontaneous alternation behavior ratio (%) was calculated as a numerical value on the basis of the spontaneous alternation behavior ratio in the vehicle administration group. In this study, a Y-shaped maze device (black acrylic: 450 mm×100 mm×350 mm, Horikawa Manufacturing Co., Ltd.) was used.

For experiment [3], the target named is T2, Human dopamine D2 receptor (Homo sapiens, UniProt P14416).
T2 construct: expressed in transfected cells; host or cells: CHO-K1 or HEK293 cells
The experiment can be described thus: Agonistic/antagonistic activity in G protein dependent pathway (aequorin intracellular calcium luminescence), D2. Particulars: for Maximal activity on each receptor (%): D2: 10 μM dopamine = 100%; for inhibition at 0.1 µM / inhibition at 1 µM: against 10 μM endogenous ligand, read-out: Inhibitory activity on each receptor (%): D2. It counts as cell-based. On the procedure: Plasmids encoding each receptor, aequorin and Gα16 were prepared, and the plasmids were transfected into CHO cells (Chinese Hamster Ovary cells) or HEK293 cells (Human Embryonic Kidney 293 cells) to prepare expressing cell lines.
The agonistic or antagonistic activity of the present compound in the G protein dependent pathway was evaluated on the basis of intracellular calcium levels as follows. CHO-K1 or HEK293 cell lines transfected with D2, D4, α1A, or α2A receptor genes were seeded in a 384-well plate, and incubated in a CO2 incubator at 37° C. for 24 hours, and then a solution of the present compound in DMSO was added into cells preloaded with coelenterazine to measure the change in luminescent signals with a FDSS (Hamamatsu Photonics K.K.). […] The agonistic activity of the present compound was calculated according to the measured luminescent signals, as the maximal activity (Emax) of the present compound. On the other hand, the antagonistic activity of the present compound was calculated according to the luminescent signals in wells with 10 μM of an endogenous ligand alone defined as 100%, as the inhibitory activity of the present compound to an endogenous ligand. EC50 value was calculated as the concentration of the present compound required to achieve a 50% response, and IC50 was calculated as the concentration of the present compound required to achieve a 50% inhibition of the Emax of an endogenous ligand.

Each structure is given as a SMILES string.

T2 sequence (P14416 whole entry): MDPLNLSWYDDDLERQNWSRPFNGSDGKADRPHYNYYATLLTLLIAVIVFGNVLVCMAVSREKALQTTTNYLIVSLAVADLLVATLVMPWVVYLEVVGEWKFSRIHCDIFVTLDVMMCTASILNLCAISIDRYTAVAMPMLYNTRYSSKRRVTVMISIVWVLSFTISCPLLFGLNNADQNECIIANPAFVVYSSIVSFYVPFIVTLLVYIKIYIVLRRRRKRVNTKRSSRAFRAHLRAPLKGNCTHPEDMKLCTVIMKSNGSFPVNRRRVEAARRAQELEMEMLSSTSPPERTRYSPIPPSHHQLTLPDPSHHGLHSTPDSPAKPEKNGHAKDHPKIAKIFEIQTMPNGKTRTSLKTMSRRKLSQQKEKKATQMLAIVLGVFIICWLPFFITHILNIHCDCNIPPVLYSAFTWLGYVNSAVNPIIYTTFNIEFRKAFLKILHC

Turning to `Cc1ncc(CN2CCC(c3ccccn3)CC2)c(N)n1` [Example 5, 2-Methyl-5-[4-(pyridin-2-yl)piperidin-1-ylmethyl]pyrimidin-4-amine], in experiment [1], the “Maximal activity on D4 receptor (%)” value is 11%. In experiment [2], the “time that the rat stayed in close to another rat side” value is given as “significantly increased”. Moreover, in experiment [2] (time for another rat side vs novel object, relative to vehicle), the “improvement ratio (%)” value came to 27.6%. In addition, the “spontaneous alternation behavior ratio” value with SHR rat is on record as “significantly improved”. In experiment [3] (0.1 μM), the “Maximal activity on each receptor (%): D2” value (“Maximal activity … (%): D2” for short) was 0.19% and the inhibition at 0.1 µM is -1.7%. In addition, in experiment [3] (1 μM), the “Maximal activity … (%): D2” value is 1.1% and the inhibition at 1 µM amounted to 9.9%.
With `Nc1ncc(CN2CCC(c3cccnc3)CC2)cn1` [Example 37], the “Maximal activity on D4 receptor (%)” value in experiment [1] stood at 9%. In experiment [3] (0.1 μM), the “Maximal activity … (%): D2” value is 5.4% and the inhibition at 0.1 µM was 14%. Further, in experiment [3] (1 μM), the “Maximal activity … (%): D2” value amounted to 18% and the inhibition at 1 µM worked out at 47%.
In the case of `Cc1ncc(CN2CCC(c3cncc(F)c3)CC2)cn1` [Example 33, 5-[4-(5-Fluoropyridin-3-yl)piperidin-1-ylmethyl]-2-methylpyrimidine], the “Maximal activity on D4 receptor (%)” value in experiment [1] worked out at 21%. Also, in experiment [3] (0.1 μM), the “Maximal activity … (%): D2” value is 0.29% and the inhibition at 0.1 µM was -5.3%. For the same molecule, in experiment [3] (1 μM), the “Maximal activity … (%): D2” value was 1.7% and the inhibition at 1 µM was 1.2%.
